Results taken from US6897210B2, “Quinazoline derivatives and pharmaceutical compositions containing them” (Zeneca Limited, priority 1996, dated 2005).

How the values were obtained:
[1] = system: VEGF receptor tyrosine kinase (Flt, KDR); experiment: In vitro receptor tyrosine kinase inhibition test (VEGF receptor); format: biochemical; conditions: VEGF receptor tyrosine kinase compared with EGF receptor tyrosine kinase
From the text: (a) In Vitro Receptor Tyrosine Kinase Inhibition Test
This assay determines the ability of a test compound to inhibit tyrosine kinase activity. […] These may then be expressed in a suitable expression system to obtain polypeptide with tyrosine kinase activity. […] This recombinant construct was co-transfected into insect cells (for example Spodoptera frugiperda 21(Sf21)) with viral DNA (eg Pharmingen BaculoGold) to prepare recombinant baculovirus.
For expression of cFlt tyrosine kinase activity, Sf21 cells were infected with plaque-pure cFlt recombinant virus at a multiplicity of infection of 3 and harvested 48 hours later. […] The suspension was centrifuged for 10 minutes at 13,000 rpm at 4° C., the supernatant (enzyme stock) was removed and stored in aliquots at −70° C. Each new batch of stock enzyme was titrated in the assay by dilution with enzyme diluent (100 mM Hepes pH 7.4, 0.2 mM sodium orthovanadate. 0.1% v/v Triton X100, 0.2 mM dithiothreitol). For a typical batch, stock enzyme is diluted 1 in 2000 with enzyme diluent and 50 μl of dilute enzyme is used for each assay well.
A stock of substrate solution was prepared from a random copolymer containing tyrosine, for example Poly (Glu, Ala, Tyr) 6:3:1 (Sigma P3899), stored as 1 mg/ml stock in PBS at −20° C. and diluted 1 in 500 with PBS for plate coating.
On the day of the assay the substrate solution was discarded and the assay plate wells were washed once with PBST (PBS containing 0.05% v/v Tween 20) and once with 50 mM Hepes pH7.4.
Test compounds were diluted with 10% dimethylsulphoxide (DMSO) and 25 μl of diluted compound was transferred to wells in the washed assay plates. “Total” control wells contained 10% DMSO instead of compound. Twenty five microliters of 40 mM manganese(II)chloride containing 8 μM adenosine-5′-triphosphate (ATP) was added to all test wells except “blank” control wells which contained maganese(II)chloride without ATP. To start the reactions 50 μl of freshly diluted enzyme was added to each well and the plates were incubated at room temperature for 20 minutes. The liquid was then discarded and the wells were washed twice with PBST. […] Plates were then incubated for 20-60 minutes at room temperature until the optical density value of the “total” control wells, measured at 405 nm using a plate reading spectrophotometer, was approximately 1.0.

activity against VEGF and EGF receptor tyrosine kinases [1]: substantially equivalent activity
melting point: > 250 °C
SMILES: COc1cc2c(Nc3ccc(Cl)cc3F)ncnc2cc1OCCN1CCNC1=O [Example 40, 4-(4-chloro-2-fluoroanilino)6-methoxy-7-(2-(2-oxoimidazolidin-1-yl)ethoxy)quinazoline]
